Laboratory results taken from US20250302815A1, “PROTEIN TYROSINE PHOSPHATASE TARGETING LIGANDS” (CALICO LIFE SCIENCES LLC, priority 2021, published 2025).

Assays:
[1] = biological target: T1, PTPN2 (HiBIT-PTPN2 in 293T.109 cells) (Homo sapiens, UniProt P17706); test: HiBiT Degradation 293T.109 PTPN2 (Nano-Glo HiBiT Lytic Assay); format: cell-based; conditions: 24.0 hours
T1 construct: expressed in transfected cells; host or cells: 293T.109 (293T WT from ATCC)
T1 sequence (P17706 1-415): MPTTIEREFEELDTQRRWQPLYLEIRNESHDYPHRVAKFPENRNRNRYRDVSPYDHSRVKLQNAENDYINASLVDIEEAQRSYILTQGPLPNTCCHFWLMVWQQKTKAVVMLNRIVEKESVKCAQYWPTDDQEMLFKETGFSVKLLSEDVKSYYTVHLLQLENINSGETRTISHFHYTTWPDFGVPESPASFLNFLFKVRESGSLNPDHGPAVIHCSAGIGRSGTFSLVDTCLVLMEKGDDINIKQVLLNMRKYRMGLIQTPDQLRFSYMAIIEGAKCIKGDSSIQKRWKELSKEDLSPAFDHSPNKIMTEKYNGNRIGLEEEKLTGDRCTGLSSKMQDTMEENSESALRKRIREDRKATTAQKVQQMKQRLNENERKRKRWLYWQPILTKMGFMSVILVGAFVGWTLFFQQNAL
Outline: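 Degradation read-out: lytic HiBiT luminescence after 24 h treatment (37 °C, 5% CO2) of 5000 293T cells per well expressing HiBiT-fused PTPN2 from an N-terminal tag. Dosing was 11 points, half-log steps down from 10 μM, in duplicate; vehicle-treated and no-reagent wells served as controls.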

PTPN2 (B16F10.4 cells) = biological target: T2, PTPN2 (B16F10.4 cells) (Mus musculus, UniProt Q06180); test: HiBiT Degradation B16F10.4 PTPN2; format: cell-based; conditions: 24.0 hours
T2 construct: HiBiT; host or cells: B16F10.4
T2 sequence (Q06180 1-406): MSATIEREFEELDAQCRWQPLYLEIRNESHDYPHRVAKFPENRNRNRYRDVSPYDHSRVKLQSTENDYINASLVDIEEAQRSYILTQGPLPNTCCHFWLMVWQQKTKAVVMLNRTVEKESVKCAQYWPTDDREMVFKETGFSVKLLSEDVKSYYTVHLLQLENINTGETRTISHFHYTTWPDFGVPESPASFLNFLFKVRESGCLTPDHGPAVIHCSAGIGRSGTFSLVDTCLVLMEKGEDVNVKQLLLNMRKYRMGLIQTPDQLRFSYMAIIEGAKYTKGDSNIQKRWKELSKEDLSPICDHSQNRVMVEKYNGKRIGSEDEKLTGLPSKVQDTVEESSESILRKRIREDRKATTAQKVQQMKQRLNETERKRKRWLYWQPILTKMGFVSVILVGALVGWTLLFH

Compound | DC50 [1] [nM] | DC50 (PTPN2 (B16F10.4 cells)) [nM]
CC1(C)C[C@H](Nc2cccc(-c3sc(C(=O)O)c(OCC(=O)O)c3Cl)c2)CCN1S(=O)(=O)Cc1cccc(NC(=O)N2CCC(c3ccc4c5c(cccc35)C(=O)N4C3CCC(=O)NC3=O)CC2)c1F (stereo partly drawn) [Example 129, 3-(carboxymethoxy)-4-chloro-5-(3-(((4R)-1-((3-(4-(1-(2,6-dioxopiperidin-3-yl)-2-oxo-1,2-dihydrobenzo[cd]indol-6-yl)piperidine-1-carboxamido)-2-fluorobenzyl)sulfonyl)-2,2-dimethylpiperidin-4-yl)amino)phenyl)thiophene-2-carboxylic acid] | 200 to 1000 | < 50
CC1(C)C[C@@H](Nc2cccc(-c3sc(C(=O)O)c(OCC(=O)O)c3Cl)c2)CCN1S(=O)(=O)Cc1cccc(NC(=O)CN2CCC(n3c(=O)n(C4CCC(=O)NC4=O)c4ccccc43)CC2)c1 (stereo partly drawn) [Example 130, 3-(carboxymethoxy)-4-chloro-5-[3-[[(4S)-1-[[3-[[2-[4-[3-(2,6-dioxo-3-piperidyl)-2-oxo-benzimidazol-1-yl]-1-piperidyl]acetyl]amino]phenyl]methylsulfonyl]-2,2-dimethyl-4-piperidyl]amino]phenyl]thiophene-2-carboxylic acid] | 200 to 1000 | 200 to 1000
Cn1c(=O)n(C2CCC(=O)NC2=O)c2ccc(C3CCN(C(=O)Nc4cccc(CS(=O)(=O)N5CC[C@@H](Nc6cccc(-c7sc(C(=O)O)c(OCC(=O)O)c7Cl)c6)CC5(C)C)c4F)CC3)cc21 (some centres unmarked) [Example 131] | 200 to 1000 | 50 to 200
Cn1c(=O)n(C2CCC(=O)NC2=O)c2ccc(C3CCN(C(=O)Nc4cccc(CS(=O)(=O)N5CC[C@H](Nc6cc(-c7sc(C(=O)O)c(OCC(=O)O)c7Cl)ccc6F)CC5(C)C)c4)CC3)cc21 (stereo partly drawn) [Example 132, 3-(carboxymethoxy)-4-chloro-5-[3-[[(4S)-1-[[3-[[4-[1-(2,6-dioxo-3-piperidyl)-3-methyl-2-oxo-benzimidazol-5-yl]piperidine-1-carbonyl]amino]phenyl]methylsulfonyl]-2,2-dimethyl-4-piperidyl]amino]-4-fluoro-phenyl]thiophene-2-carboxylic acid] | 200 to 1000 | 50 to 200
Cn1c(=O)n(C2CCC(=O)NC2=O)c2ccc(C3CCN(C(=O)Nc4cccc(CS(=O)(=O)N5CC[C@@H](Nc6cc(-c7sc(C(=O)O)c(OCC(=O)O)c7Cl)ccc6F)CC5(C)C)c4)CC3)cc21 (some centres unmarked) [Example 133] | 200 to 1000 | 50 to 200
Cn1c(=O)n(C2CCC(=O)NC2=O)c2ccc(C3CCN(C(=O)Nc4cccc(CS(=O)(=O)N5CC[C@H](Nc6cccc(-c7sc(C(=O)O)c(OCC(=O)O)c7Cl)c6F)CC5(C)C)c4)CC3)cc21 (stereo partly drawn) [Example 134, 3-(carboxymethoxy)-4-chloro-5-[3-[[(4S)-1-[[3-[[4-[1-(2,6-dioxo-3-piperidyl)-3-methyl-2-oxo-benzimidazol-S-yl]piperidine-1-carbonyl]amino]phenyl]methylsulfonyl]-2,2-dimethyl-4-piperidyl]amino]-2-fluoro-phenyl]thiophene-2-carboxylic acid] | < 50 | < 50
Cn1c(=O)n(C2CCC(=O)NC2=O)c2ccc(C3CCN(C(=O)Nc4cccc(CS(=O)(=O)N5CC[C@@H](Nc6cccc(-c7sc(C(=O)O)c(OCC(=O)O)c7Cl)c6F)CC5(C)C)c4)CC3)cc21 (stereo partly drawn) [Example 135, 3-(carboxymethoxy)-4-chloro-5-[3-[[(4R)-1-[[3-[[4-[1-(2,6-dioxo-3-piperidyl)-3-methyl-2-oxo-benzimidazol-5-yl]piperidine-1-carbonyl]amino]phenyl]methylsulfonyl]-2,2-dimethyl-4-piperidyl]amino]-2-fluoro-phenyl]thiophene-2-carboxylic acid] | 50 to 200 | < 50
Cn1c(=O)n(C2CCC(=O)NC2=O)c2ccc(N3CC(OC(=O)Nc4cccc(CS(=O)(=O)N5CC[C@H](Nc6cccc(-c7sc(C(=O)O)c(OCC(=O)O)c7Cl)c6)CC5(C)C)c4)C3)cc21 (some centres unmarked) [Example 136] | 200 to 1000 | ≥ 1000
CC(C)n1c(=O)n(C2CCC(=O)NC2=O)c2ccc(C3CCN(C(=O)Nc4cccc(CS(=O)(=O)N5CC[C@H](Nc6cccc(-c7sc(C(=O)O)c(OCC(=O)O)c7Cl)c6)CC5(C)C)c4)CC3)cc21 (some centres unmarked) [Example 137] | 50 to 200 | 50 to 200
Cn1c(=O)n(C2CCC(=O)NC2=O)c2ccc([C@H]3CC[C@H](C(=O)Nc4cccc(CS(=O)(=O)N5CC[C@H](Nc6cccc(-c7sc(C(=O)O)c(OCC(=O)O)c7Cl)c6)CC5(C)C)c4)CC3)cc21 (stereo partly drawn) [Example 138, 3-(carboxymethoxy)-4-chloro-5-(3-(((4S)-1-((3-((1r,4S)-4-(1-(2,6-dioxopiperidin-3-yl)-3-methyl-2-oxo-2,3-dihydro-1H-benzo[d]imidazol-5-yl)cyclohexane-1-carboxamido)benzyl)sulfonyl)-2,2-dimethylpiperidin-4-yl)amino)phenyl)thiophene-2-carboxylic acid] | < 50 | < 50
Cn1c(=O)n(C2CCC(=O)NC2=O)c2ccc([C@H]3CC[C@@H](C(=O)Nc4cccc(CS(=O)(=O)N5CC[C@H](Nc6cccc(-c7sc(C(=O)O)c(OCC(=O)O)c7Cl)c6)CC5(C)C)c4)CC3)cc21 (stereo partly drawn) [Example 139, 3-(carboxymethoxy)-4-chloro-5-(3-(((4S)-1-((3-((1s,4R)-4-(1-(2,6-dioxopiperidin-3-yl)-3-methyl-2-oxo-2,3-dihydro-1H-benzo[d]imidazol-5-yl)cyclohexane-1-carboxamido)benzyl)sulfonyl)-2,2-dimethylpiperidin-4-yl)amino)phenyl)thiophene-2-carboxylic acid] | < 50 | 50 to 200
Cn1c(=O)n(C2CCC(=O)NC2=O)c2ccc(N3CC4(CN(C(=O)Nc5cccc(CS(=O)(=O)N6CC[C@H](Nc7cccc(-c8sc(C(=O)O)c(OCC(=O)O)c8Cl)c7)CC6(C)C)c5)C4)C3)cc21 (stereo partly drawn) [Example 140, 3-(carboxymethoxy)-4-chloro-5-[3-[[(4S)-1-[[3-[[6-[1-(2,6-dioxo-3-piperidyl)-3-methyl-2-oxo-benzimidazol-5-yl]-2,6-diazaspiro[3.3]heptane-2-carbonyl]amino]phenyl]methylsulfonyl]-2,2-dimethyl-4-piperidyl]amino]phenyl]thiophene-2-carboxylic acid] | < 50 | 50 to 200
Cn1c(=O)n(C2CCC(=O)NC2=O)c2ccc(N3CCC(N4CCN(c5cccc(CS(=O)(=O)N6CCC(Nc7cccc(-c8sc(C(=O)O)c(OCC(=O)O)c8Cl)c7)CC6)c5)C4=O)CC3)cc21 (centres unmarked) [Example 142, 3-(carboxymethoxy)-4-chloro-5-(3-((1-((3-(3-(1-(1-(2,6-dioxopiperidin-3-yl)-3-methyl-2-oxo-2,3-dihydro-1H-benzo[d]imidazol-5-yl)piperidin-4-yl)-2-oxoimidazolidin-1-yl)benzyl)sulfonyl)piperidin-4-yl)amino)phenyl)thiophene-2-carboxylic acid] | < 50 | 50 to 200
Cn1nc(C2CCC(=O)NC2=O)c2ccc(C3CCN(C(=O)Nc4cccc(CS(=O)(=O)N5CC[C@H](Nc6cccc(-c7sc(C(=O)O)c(OCC(=O)O)c7Cl)c6)CC5(C)C)c4)CC3)cc21 (stereo partly drawn) [Example 143, 3-(carboxymethoxy)-4-chloro-5-[3-[[(4S)-1-[[3-[[4-[3-(2,6-dioxo-3-piperidyl)-1-methyl-indazol-6-yl]piperidine-1-carbonyl]amino]phenyl]methylsulfonyl]-2,2-dimethyl-4-piperidyl]amino]phenyl]thiophene-2-carboxylic acid] | 50 to 200 | 50 to 200
Cn1c(=O)n(C2CCC(=O)NC2=O)c2ccc(Nc3ccc(C(=O)Nc4cccc(CS(=O)(=O)N5CC[C@H](Nc6cccc(-c7sc(C(=O)O)c(OCC(=O)O)c7Cl)c6)CC5(C)C)c4)cc3)cc21 (some centres unmarked) [Example 144] | < 50 | 50 to 200
Cn1c(=O)n(C2CCC(=O)NC2=O)c2ccc(-c3ccc(NC(=O)Nc4cccc(CS(=O)(=O)N5CC[C@H](Nc6cccc(-c7sc(C(=O)O)c(OCC(=O)O)c7Cl)c6)CC5(C)C)c4)cc3)cc21 (stereo partly drawn) [Example 145, 3-(carboxymethoxy)-4-chloro-5-(3-(((4S)-1-((3-(3-(4-(1-(2,6-dioxopiperidin-3-yl)-3-methyl-2-oxo-2,3-dihydro-1H-benzo[d]imidazol-5-yl)phenyl)ureido)benzyl)sulfonyl)-2,2-dimethylpiperidin-4-yl)amino)phenyl)thiophene-2-carboxylic acid] | 50 to 200 | 50 to 200
